Measurements: US6914045B2, “Glycopeptide antibiotics” (Wyeth Holdings Corporation, priority 2001, dated 2005)
≈ marks a conversion by molar mass, not a printed value.

Assays:
[1] = tested on: Streptococcus sp.; assay: in vitro antibacterial evaluation, MIC by broth dilution; format: cell-based; conditions: broth dilution, 18 hours at 35° C.
How it was run: (§1)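 Broth dilution per NCCLS M7-A2 in Mueller-Hinton II medium, inoculum 5×10^5 CFU/mL, antibiotic range 64-0.06 μg/mL. MIC taken as lowest concentration inhibiting growth; Gram-positive panel includes recent clinical isolates resistant to methicillin, penicillin and/or vancomycin.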

[2] = tested on: Escherichia coli; assay: as above; format: cell-based
How it was run: as §1

[3] = tested on: Enterococcus sp.; assay: as above; format: cell-based; conditions: broth dilution, 18 hours at 35° C.; for MIC Enterococcus faecalis (ATCC 29212): strain ATCC 29212; for MIC Enterococcus faecium (GC 2243): strain GC 2243; for MIC Enterococcus faecalis (GC 4552): strain GC 4552; for MIC Enterococcus faecalis (GC 4553): strain GC 4553; for MIC Enterococcus faecalis (GC 4554): strain GC 4554; for MIC Enterococcus faecium (GC 4556): strain GC 4556; for MIC Enterococcus faecium (GC 4557): strain GC 4557; for MIC Enterococcus avium (GC 4558): strain GC 4558; for MIC Enterococcus faecalis (GC 6189): strain GC 6189
How it was run: as §1

[4] = tested on: Staphylococcus sp.; assay: as above; format: cell-based; conditions: broth dilution, 18 hours at 35° C.; for MIC Staphylococcus aureus (GC 1131): strain GC 1131
How it was run: as §1

[5] = tested on: Staphylococcus aureus-SMITH (GC 4543); assay: acute lethal infection in mice; format: in vivo; conditions: acute lethal infection, female CD-1 mice, intraperitoneal challenge, intravenous 30 min. after infection, 7 day survival
How it was run: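 Protocol: bacteria suspended in trypticase soy broth or hog gastric mucin injected ip into female CD-1 mice at a level killing untreated controls in 24-48 hr; compound given iv in saline or 5% dextrose 30 min post-challenge; five mice per dose; ED50 derived from pooled 7 day survival of three runs.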

Structure (SMILES): CC(c1ccccc1)C1NC(=O)CNC(=O)C(CO)NC(=O)C(C(O)C2CNC(=N)N2C2OC(CO)C(O)C(O)C2O)NC(=O)C(C(O)C2CNC(=N)N2)NC(=O)C(Cc2ccc(OC3OC(CO)C(OC4OC5COC(c6cc7c(cc6Cl)OCO7)OC5C(O)C4O)C(O)C3O)cc2)NC1=O (stereo not drawn) [Example 158, Cyclo[glycyl-β-methylphenylalanyl-O-[4-O-[4,6-O-[(6-chloro-1,3-benzodioxol-5-yl)-methylene]hexopyranosyl]hexopyranosyl]tyrosyl-3-(2-iminoimidazolidin-4-yl)seryl-3-(3-hexopyranosyl-2-iminoimidazolidin-4-yl)serylseryl]]
- MIC Streptococcus agalactiae (GC 4564) ([1]; Streptococcus agalactiae (GC 4564)): 0.25 µg/mL (≈ 0.171 µM)
- MIC Streptococcus pneumoniae (ATCC 6301) ([1]; Streptococcus pneumoniae (ATCC 6301)): 0.12 µg/mL (≈ 0.0821 µM)
- MIC Streptococcus pneumoniae (GC 1894) ([1]; Streptococcus pneumoniae (GC 1894)): <0.06 µg/mL
- MIC Streptococcus pneumoniae (GC 4565) ([1]; Streptococcus pneumoniae (GC 4565)): <0.06 µg/mL
- MIC Streptococcus pyogenes (GC 4563) ([1]; Streptococcus pyogenes (GC 4563)): 0.25 µg/mL (≈ 0.171 µM)
- MIC Streptococcus pneumoniae (ATCC 6301) ([1]; strain ATCC 6301): 0.12 µg/mL (≈ 0.0821 µM)
- MIC Streptococcus pneumoniae (GC 1894) ([1]; strain GC 1894): <0.06 µg/mL
- MIC Streptococcus pyogenes (GC 4563) ([1]; strain GC 4563): 0.25 µg/mL (≈ 0.171 µM)
- MIC Streptococcus agalactiae (GC 4564) ([1]; strain GC 4564): 0.25 µg/mL (≈ 0.171 µM)
- MIC Streptococcus pneumoniae (GC 4565) ([1]; strain GC 4565): <0.06 µg/mL
- MIC Escherichia coli (ATCC 25922) ([2]; strain ATCC 25922, 18 hours at 35° C.): 64 µg/mL (≈ 43.8 µM)
- MIC Escherichia coli (GC 4559) ([2]; strain GC 4559, 18 hours at 35° C.): 64 µg/mL (≈ 43.8 µM)
- MIC Escherichia coli (GC 4560) ([2]; strain GC 4560, 18 hours at 35° C.): 1 µg/mL (≈ 0.684 µM)
- MIC Enterococcus faecalis (GC 2242) ([3]; Enterococcus faecalis (GC 2242)): 4 µg/mL (≈ 2.74 µM)
- MIC Enterococcus faecalis (GC 2691) ([3]; Enterococcus faecalis (GC 2691)): 4 µg/mL (≈ 2.74 µM)
- MIC Enterococcus faecalis (GC 3059) ([3]; Enterococcus faecalis (GC 3059)): 4 µg/mL (≈ 2.74 µM)
- MIC Enterococcus faecalis (ATCC 29212) ([3]; inoculum 5×10^5 CFU/mL): 4 µg/mL (≈ 2.74 µM)
- MIC Enterococcus faecium (GC 2243) ([3]; inoculum 5×10^5 CFU/mL): 4 µg/mL (≈ 2.74 µM)
- MIC Enterococcus faecalis (GC 4552) ([3]; inoculum 5×10^5 CFU/mL): 8 µg/mL (≈ 5.47 µM)
- MIC Enterococcus faecalis (GC 4553) ([3]; inoculum 5×10^5 CFU/mL): 4 µg/mL (≈ 2.74 µM)
- MIC Enterococcus faecalis (GC 4554) ([3]; inoculum 5×10^5 CFU/mL): 4 µg/mL (≈ 2.74 µM)
- MIC Enterococcus faecium (GC 4556) ([3]; inoculum 5×10^5 CFU/mL): 8 µg/mL (≈ 5.47 µM)
- MIC Enterococcus faecium (GC 4557) ([3]; inoculum 5×10^5 CFU/mL): 2 µg/mL (≈ 1.37 µM)
- MIC Enterococcus avium (GC 4558) ([3]; inoculum 5×10^5 CFU/mL): 4 µg/mL (≈ 2.74 µM)
- MIC Enterococcus faecalis (GC 6189) ([3]; inoculum 5×10^5 CFU/mL): 4 µg/mL (≈ 2.74 µM)
- MIC Enterococcus faecalis (ATCC 29212) [3]: 4 µg/mL (≈ 2.74 µM)
- MIC Enterococcus faecalis (GC 2242) ([3]; strain GC 2242): 4 µg/mL (≈ 2.74 µM)
- MIC Enterococcus faecium (GC 2243) [3]: 4 µg/mL (≈ 2.74 µM)
- MIC Enterococcus faecalis (GC 2691) ([3]; strain GC 2691): 4 µg/mL (≈ 2.74 µM)
- MIC Enterococcus faecalis (GC 3059) ([3]; strain GC 3059): 4 µg/mL (≈ 2.74 µM)
- MIC Enterococcus faecalis (GC 4552) [3]: 8 µg/mL (≈ 5.47 µM)
- MIC Enterococcus faecalis (GC 4553) [3]: 4 µg/mL (≈ 2.74 µM)
- MIC Enterococcus faecalis (GC 4554) [3]: 4 µg/mL (≈ 2.74 µM)
- MIC Enterococcus faecium (GC 4556) [3]: 8 µg/mL (≈ 5.47 µM)
- MIC Enterococcus faecium (GC 4557) [3]: 2 µg/mL (≈ 1.37 µM)
- MIC Enterococcus avium (GC 4558) [3]: 4 µg/mL (≈ 2.74 µM)
- MIC Enterococcus faecalis (GC 6189) [3]: 4 µg/mL (≈ 2.74 µM)
- MIC Staphylococcus aureus (GC 1131) ([4]; inoculum 5×10^5 CFU/mL): 2 µg/mL (≈ 1.37 µM)
- MIC Staphylococcus aureus (ATCC 29213) ([4]; strain ATCC 29213): 2 µg/mL (≈ 1.37 µM)
- MIC Staphylococcus aureus (GC 1131) [4]: 2 µg/mL (≈ 1.37 µM)
- MIC Staphylococcus aureus (GC 3051) ([4]; strain GC 3051): 1 µg/mL (≈ 0.684 µM)
- MIC Staphylococcus aureus (GC 3053) ([4]; strain GC 3053): 2 µg/mL (≈ 1.37 µM)
- MIC Staphylococcus aureus (GC 4541) ([4]; strain GC 4541): 1 µg/mL (≈ 0.684 µM)
- MIC Staphylococcus aureus (GC 4542) ([4]; strain GC 4542): 1 µg/mL (≈ 0.684 µM)
- MIC Staphylococcus aureus-SMITH (GC 4543) ([4]; strain GC 4543): 2 µg/mL (≈ 1.37 µM)
- MIC Staphylococcus aureus (GC 4544) ([4]; strain GC 4544): 2 µg/mL (≈ 1.37 µM)
- MIC Staphylococcus aureus (GC 4545) ([4]; strain GC 4545): 2 µg/mL (≈ 1.37 µM)
- MIC Staphylococcus haemolyticus (GC 4546) ([4]; strain GC 4546): 0.5 µg/mL (≈ 0.342 µM)
- MIC Coagulase Negative Staphylococcus (GC 4547) ([4]; strain GC 4547): 2 µg/mL (≈ 1.37 µM)
- MIC Coagulase Negative Staphylococcus (GC 4548) ([4]; strain GC 4548): 1 µg/mL (≈ 0.684 µM)
- MIC Coagulase Negative Staphylococcus (GC 4549) ([4]; strain GC 4549): 1 µg/mL (≈ 0.684 µM)
- MIC Coagulase Negative Staphylococcus (GC 4551) ([4]; strain GC 4551): 2 µg/mL (≈ 1.37 µM)
- MIC Coagulase Negative Staphylococcus (GC 6257) ([4]; strain GC 6257): 1 µg/mL (≈ 0.684 µM)
- MIC Staphylococcus aureus-SMITH (GC 4543) ([4]; strain SMITH GC 4543): 2 µg/mL (≈ 1.37 µM)
- median effective dose (ED50), Staphylococcus aureus-SMITH (GC 4543) [5]: 0.14 mg/kg
